Assay results reported in patent US6984649B1, “Pyridine derivatives” (Bayer Aktiengesellschaft, priority 2000, dated 2006).
Structures can show the parent of a compound that is named as a salt.

biological target: T1, human IKK-β (Homo sapiens, UniProt O14920); assay: IKK-β kinase inhibitory assay; type: biochemical; settings: compounds as yielded by solid phase synthesis, purity about 40 to 90%, read-out: In vitro activity grade (In vitro IC50)
T1 construct: A cDNA fragment encoding human IKK-β open reading frame was generated by PCR; His tag (from pcDNA3.1/His C); made in house; host or cells: Sf21 insect cells (baculovirus); substrate made in E. coli
T1 sequence (O14920 1-756): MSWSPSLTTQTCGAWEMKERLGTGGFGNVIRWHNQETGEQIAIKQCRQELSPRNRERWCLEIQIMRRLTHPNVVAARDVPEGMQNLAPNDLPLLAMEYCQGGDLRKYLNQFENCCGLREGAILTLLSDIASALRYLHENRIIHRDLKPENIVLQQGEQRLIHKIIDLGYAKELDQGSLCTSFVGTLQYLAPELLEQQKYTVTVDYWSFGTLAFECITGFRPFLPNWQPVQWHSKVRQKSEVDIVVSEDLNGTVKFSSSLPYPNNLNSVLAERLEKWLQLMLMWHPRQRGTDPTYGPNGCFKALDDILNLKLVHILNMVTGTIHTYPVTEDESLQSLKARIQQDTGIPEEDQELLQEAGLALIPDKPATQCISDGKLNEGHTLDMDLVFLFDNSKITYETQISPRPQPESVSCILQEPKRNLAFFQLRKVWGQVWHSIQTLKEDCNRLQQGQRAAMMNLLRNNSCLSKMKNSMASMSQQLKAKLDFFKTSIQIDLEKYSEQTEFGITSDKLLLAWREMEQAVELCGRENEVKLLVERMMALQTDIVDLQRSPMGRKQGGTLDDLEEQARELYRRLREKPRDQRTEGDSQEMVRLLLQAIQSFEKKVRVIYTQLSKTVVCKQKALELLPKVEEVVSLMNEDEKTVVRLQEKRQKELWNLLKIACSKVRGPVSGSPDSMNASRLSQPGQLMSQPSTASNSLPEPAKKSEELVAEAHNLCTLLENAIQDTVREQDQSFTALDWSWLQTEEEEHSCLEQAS
Outline: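 Radiometric read-out: streptavidin capture of 33P-labelled bio-GST-IκBα(1-54), 0.2 μM, after a 2 h room-temperature reaction started with ATP/[γ-33P]ATP. Enzyme was recombinant His-tagged human IKK-β expressed in Sf21 insect cells, used at 0.6 μg/ml in Tris-HCl pH 7.6/MgCl2 kinase buffer. Compounds added in 2.5% DMSO.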

SMILES | IC50
N#Cc1c(C2CCC(C(=O)O)CC2)cc(-c2ccccc2O)nc1N (stereo not shown) [Example 1-38] | < 500 nM
O=c1ccc2c(C3CCCNC3)cc(-c3c(O)cccc3OCC3CC3)nc2[nH]1 (stereo not shown) [Example 25-4, 7-[2-(cyclopropylmethoxy)-6-hydroxyphenyl]-5-(3-piperidinyl)-1,8-naphthyridin-2(1H)-one hydrochloride] | < 500 nM
N#Cc1c(C2CCCNC2)cc(-c2c(O)cccc2OCCN2CCOCC2)nc1N (stereo not shown) [Example 2-84] | < 500 nM
COc1ccc(C[C@H](N)c2cc(-c3ccccc3O)nc(N)c2C#N)cc1 [Example 1-26] | < 500 nM
N#Cc1c([C@H](Cc2ccccc2)NC(=O)CCN2CCCCC2)cc(-c2ccccc2O)nc1N [Example 1-40] | 500 to 2000 nM
CCCOc1cccc(O)c1-c1cc(C2CCNCC2)c(C#N)c(N)n1 [Example 2-67] | < 500 nM
N#Cc1c(C2CCNCC2)cc(-c2c(O)cccc2OCC2CCC2)nc1N [Example 2-68] | < 500 nM
N#Cc1c(C2CCCNC2)cc(-c2c(O)cccc2OCC2CC2)nc1N (stereo not shown) [Example 2-65] | < 500 nM
CC(C)[C@H](N)c1cc(-c2ccccc2O)nc(N)c1C#N [Example 1-33] | < 500 nM
CCCCCOc1cccc(O)c1-c1cc(C2CCNCC2)c(C#N)c(N)n1 [Example 2-69] | < 500 nM
CN(C)CCOc1cccc(O)c1-c1cc(C2CCCNC2)c(C#N)c(N)n1 (stereo not shown) [Example 2-85] | 500 to 2000 nM
N#Cc1c(C2CCCNC2)cc(-c2c(O)cccc2OCc2ccc([N+](=O)[O-])cc2)nc1N (stereo not shown) [Example 2-14] | < 500 nM
CCOC(=O)C1Cc2c(C3CCCNC3)cc(-c3ccccc3O)nc2NC1=O (stereo not shown) [Example 26-1, ethyl 7-(2-hydroxyphenyl)-2-oxo-5-(3-piperidinyl)-1,2,3,4-tetrahydro-1,8-naphthyridine-3-carboxylate] | < 500 nM
N#Cc1c(C2CCC(N)CC2)cc(-c2ccccc2O)nc1N (stereo not shown) [Example 1-22] | < 500 nM
CCOC(=O)N1Cc2c(C3CCCNC3)cc(-c3c(O)cccc3OCC3CC3)nc2NC1=O (stereo not shown) [Example 24-2, ethyl 7-[2-(cyclopropylmethoxy)-6-hydroxyphenyl]-2-oxo-5-(3-piperidinyl)-1,4-dihydropyrido[2,3-d]pyrimidine-3(2H)-carboxylate hydrochloride] | < 500 nM
O=C1Nc2nc(-c3c(O)cccc3OCC3CC3)cc(C3CCCNC3)c2CN1C(=O)NC1CCCCC1 (stereo not shown) [Example 24-3, N-cyclohexyl-7-[2-(cyclopropylmethoxy)-6-hydroxyphenyl]-2-oxo-5-(3-piperidinyl)-1,4-dihydropyrido[2,3-d]pyrimidine-3(2H)-carboxamide hydrochloride] | < 500 nM
N#Cc1c(C2CCCNC2)cc(-c2c(O)cccc2OCc2cccc(C(F)(F)F)c2)nc1N (stereo not shown) [Example 2-09] | < 500 nM
N#Cc1c(C2CCCNC2)cc(-c2c(O)cccc2OCc2ccc(Cl)cc2)nc1N (stereo not shown) [Example 2-19] | < 500 nM
N#Cc1c(CC(N)c2ccccc2)cc(-c2ccccc2O)nc1N (stereo not shown) [Example 1-35] | < 500 nM
CC(C)(C)C(=O)COc1cccc(O)c1-c1cc(C2CCCNC2)c(C#N)c(N)n1 (stereo not shown) [Example 2-77] | < 500 nM
Cc1ccc(COc2cccc(O)c2-c2cc(C3CCCNC3)c(C#N)c(N)n2)cc1 (stereo not shown) [Example 2-08] | < 500 nM
N#Cc1c(CCO)cc(-c2ccccc2O)nc1N [Example 1-44] | 500 to 2000 nM
N#Cc1c(C2CCCNC2)cc(-c2c(O)cccc2OCc2cccc([N+](=O)[O-])c2)nc1N (stereo not shown) [Example 2-13] | < 500 nM
Cc1cccc(-c2cc(C3CCCNC3)c(C#N)c(N)n2)c1O (stereo not shown) [Example 1-17] | 500 to 2000 nM
CC(N)Cc1cc(-c2ccccc2O)nc(N)c1C#N (stereo not shown) [Example 1-36] | < 500 nM
Cc1cccc(COc2cccc(O)c2-c2cc(C3CCCNC3)c(C#N)c(N)n2)c1 (stereo not shown) [Example 2-07] | < 500 nM
N#Cc1c(C2CCNCC2)cc(-c2c(O)cccc2OCCC2CCCCC2)nc1N [Example 2-70] | < 500 nM
N#Cc1c(C2CCCCN2)cc(-c2ccccc2O)nc1N (stereo not shown) [Example 1-14] | 500 to 2000 nM
